Results taken from patent US6869961B2, “Store operated calcium influx inhibitors and methods of use” (Cellegy Pharmaceuticals, Inc., priority 2001, dated 2005).
Blank lines part the entries; values can stand above or below the compound they belong to.

Assays:
IL-2 [1] = test: IL-2 release from Jurkat cells (PMA and ionomycin, ELISA); assay type: cell-based, human; conditions: for IC50: Homo sapiens, Jurkat, Table III, 'the foregoing assay' of Example 2
Method: Since NFAT plays a critical role in IL-2 and TNFα gene transcription, the effects of the novel compounds on IL-2 and TNFα secretion from stimulated lymphoid cells were also investigated. Jurkat cells, in standard medium, were seeded into 24-well dishes at 1 million cells per well and were treated as follows: […], then stimulated with 20 ng/mL PMA and 1 μg/mL ionomycin for 5 hours. Following centrifugation, the supernatants were analyzed for IL-2 content by ELISA using a standard protocol.

NFAT = test: NFAT-regulated luciferase reporter assay in Jurkat cells; assay type: cell-based, human; conditions: for inhibition of NFAT activity: NFAT reporter assay, Jurkat cells
Method: The biological activity of column fractions and crystalline material was assessed in the NFAT activation assay using Jurkat cells stably transfected with NFAT-regulated luciferase reporter (see, FIGS. 9-14).
Jurkat cells, in standard medium, were seeded in 24-well dishes at 1 million cells per well and treated as follows. […] The cells were harvested 5 hours later and luciferase activity was measured in a luminometer.

IL-8 = IL-8 production from Jurkat cells; assay type: cell-based, human
NF-κB = NF-κB luciferase reporter in Jurkat T cells; assay type: cell-based, human; conditions: 20 μg/ml, 5 hr
Method: The next day, cells were preincubated with lovastatin (20 μg/ml) or vehicle control for 15 min, and then stimulated with PMA (20 ng/ml), ionomycin (1 μg/ml), or PMA+ionomycin for 5 hr. The cells were harvested, lysed, and lysates assayed for firefly luciferase and Renilla luciferase activity measured in a luminometer.

TNBS-induced colitis = test: Rat TNBS-induced colitis model; assay type: in vivo; conditions: 50 mg/kg/day intracolonically, two weeks, day 14
From the text: Human inflammatory bowel disease (IBD) is a chronic relapsing and remitting disease of unknown etiology that affects individuals of both sexes throughout life. The factors contributing to the two main forms of the disease, Crohn's disease and ulcerative colitis, are complex and probably involve abnormal immune responses and commensal intestinal microflora. A number of experimental models of intestinal inflammation have been developed, including those based on intracolonic instillation of 2,4,6-trinitrobenzene sulfonic acid (TNBS). TNBS-induced colitis shares many of the histopathological and clinical features of Crohn's disease, i.e. it is to some extent immune-mediated, produces long lasting ulcerative damage and thickening of the bowel wall, granulocyte and mononuclear cell infiltration and granuloma formation, and transmural inflammation of the mucosa, (Morris et al., Gastroenterology 96:795-803, 1989). This model has been widely used to evaluate potential treatments for colonic inflammation.
In the present study, the local anti-inflammatory effects of lovastatin were assessed in the rat TNBS-induced colitis model. Colitis was induced in male Wistar rats weighing 175-225 g by intracolonic instillation of the hapten TNBS (60 mg/ml) in 0.5 ml of 50% ethanol. Groups of 8 rats received the lovastatin formulation prepared in Example 11 (50 mg/kg/day), a positive control, budesonide (2.5 mg/kg/day), or vehicle (0.5% sodium carboxymethylcellulose) intracolonically 1 hour after induction of colitis, and at 12 h intervals thereafter for two weeks. The rats received 0.5 ml of test drug or vehicle at each dosing. On day 14 after induction of colitis, the animals were euthanized and the distal colon was removed and pinned out on a wax platform. The presence or absence of diarrhea was noted, as was the presence and severity of adhesions between the colon and other organs. The severity of colonic damage was scored using the criteria described in Appleyard and Wallace, Am. J. Physiol. 269 (Gastrointest.Liver Physiol. 32): G119-G125, 1995. […]

[2] = system: rat basophilic leukemia (2H3) cells; test: 5-HT release from rat basophilic leukemia (2H3) cells; assay type: cell-based; conditions: FIG. 5
[3] = system: oxazolone-induced contact hypersensitivity response; conditions: mouse, FIG. 6
JNK = JNK phosphorylation in Jurkat T cells (Western blot); assay type: cell-based, human; design: dose or concentration left out as unconfirmed; conditions: lovastatin
From the text: Cells were harvested, lysates prepared, and proteins Western blotted using antibodies directed against JNK or phospho-JNK (Thr183/Thr185).

IL-2 [4] = test: PBMC IL-2 release; assay type: cell-based; conditions: FIG. 3
TNF-alpha = test: PBMC TNF-alpha release; assay type: cell-based; conditions: FIG. 4
Crohn's disease = test: Maintenance therapy of Crohn's disease in remission; assay type: in vivo, human; conditions: Crohn's disease subjects in remission
From the text: Remission is defined as no need for oral prednisone and presence of a score of 150 or less on the Crohn's Disease Activity Index. This index incorporates eight items: the number of liquid or very soft stools in the seven days preceding the assessment, the severity of abdominal pain, general well-being, the presence or absence of an abdominal mass or extra-intestinal manifestation of the disease, the use of opiates to treat diarrhea, hematocrit, and weight. Scores in this index can range from 0 to approximately 600. Higher scores indicate greater disease activity.
Upon reaching remission, the subject takes lovastatin orally (Mevacor, 20-1000 mg) every day, in addition to one or more of the following: controlled release lovastatin tablet(s) targeting specific disease sites, lovastatin enema(s), or lovastatin rectal suppositories on a regular basis. On average, 50-60% of Crohn's disease subjects in remission relapse in 40 weeks.

IFN-gamma = IFN-gamma production from Jurkat cells; assay type: cell-based, human

SMILES: CC(C)n1c(/C=C/C(O)CC(O)CC(=O)O)c(-c2ccc(F)cc2)c2ccccc21 (stereo not shown) [fluvastatin]
inhibition of NFAT activity (NFAT): inactive

SMILES: CN1C(=O)N(c2cc(Cl)cc(Cl)c2)C(=O)[C@@]1(C)Cc1ccc(Br)cc1 [BIRT377]
inhibition of NFAT activity (NFAT): very weak NFAT inhibitory activity

SMILES: CCC(C)C(=O)OC1CCC=C2C=CC(C)C(CCC(O)CC(O)CC(=O)O)C21 (stereo not shown) [mevastatin open chain form]
inhibition of NFAT activity (NFAT): only the lactone form was active

SMILES: CN1C(=O)N(c2cc(Cl)cc(Cl)c2)C(=O)C1(C)Cc1ccc(Br)cc1 (single isomer, unassigned) [BIRT377 less active enantiomer]
inhibition of NFAT activity (NFAT): very weak NFAT inhibitory activity

SMILES: CC[C@H](C)C(=O)O[C@H]1C[C@H](O)C=C2C=C[C@H](C)[C@H](CC[C@@H](O)C[C@@H](O)CC(=O)O)[C@H]21 [Pravastatin, pravastatin]
inhibition of NFAT activity (NFAT): inactive

SMILES: CC[C@H](C)C(=O)O[C@H]1CCC=C2C=C[C@H](C)[C@H](CC[C@@H]3C[C@@H](O)CC(=O)O3)[C@H]21 [mevastatin]
inhibition of NFAT activity (NFAT): able to inhibit
inhibition of NFAT activity (NFAT; listed as mevastatin lactone form): active

SMILES: CC[C@H](C)C(=O)O[C@H]1C[C@@H](C)C=C2C=C[C@H](C)[C@H](CC[C@@H]3C[C@@H](O)CC(=O)O3)[C@H]21 [lovastatin]
inhibition of IL-8 production (IL-8): inhibition
calcium-dependent NF-κB activation (ionomycin synergy with PMA) (NF-κB): strongly inhibits
colonic MPO activity (TNBS-induced colitis): reduced
colonic damage score (TNBS-induced colitis): significant (p<0.05) reduction
global colitis score (TNBS-induced colitis): significant (p<0.05) reduction
inhibition of Jurkat IL-2 release (IL-2 [1]; FIG. 2): inhibition
inhibition of 5-hydroxytryptomine (5-HT) release [2]: inhibition
inhibition of NFAT activity (NFAT): able to inhibit
inhibition of oxazolone-induced contact hypersensitivity response [3]: inhibition
PMA-induced JNK phosphorylation (JNK): little effect
JNK phosphorylation induced by PMA+ionomycin (JNK; 15 min pre-incubation, 30 min stimulation): inhibits
inhibition of PBMC IL-2 release (IL-2 [4]): inhibition
inhibition of PBMC TNF-alpha release (TNF-alpha): inhibition
disease activity (Crohn's disease): less severe
remission time between relapse (Crohn's disease; oral 20-1000 mg every day plus local forms): longer
inhibition of IFN-gamma production (IFN-gamma): inhibition

SMILES: COC(=O)/C=C/C=C/C=C/c1c(-c2ccc(F)cc2)c2ccccc2n1C(C)C [Compound 1079-76-3C]
IL-2 release by PMA and ionomycin in Jurkat cells (IL-2 [1]; 5.0 μg/mL, 30 min pre-incubation, 5 hours): inhibit
inhibition of TG+PMA-induced NFAT activity (NFAT; 5 μg/mL, 0.3 μM TG + 20 ng/mL PMA, 5 hours): approximately 85%
expression of NFAT-regulated reporter gene (NFAT; Jurkat cells stimulated with ionomycin + PMA or thapsigargin + PMA): inhibited

SMILES: CC(C)c1c(C(=O)Nc2ccccc2)c(-c2ccccc2)c(-c2ccc(F)cc2)n1CC[C@@H](O)C[C@@H](O)CC(=O)O [atorvastatin]
inhibition of NFAT activity (NFAT): inactive

Now from value to compound:

IC50 (IL-2 [1]): 5 µM
SMILES: O=C1C=CCC(CCc2ccccc2)O1 (stereo not shown)

IC50 (IL-2 [1]): > 50 µM
SMILES: O=C1CCCC(CCc2ccccc2)O1 (stereo not shown)

IC50 (IL-2 [1]): 300 µM
SMILES: O=C1C[C@H](O)C[C@H](CCc2ccccc2)O1

IC50 (IL-2 [1]): 12 to 40 µM
SMILES: CCOC(=O)/C=C/C=C/CCc1ccccc1

IC50 (IL-2 [1]): 15 µM
SMILES: O=C1C=CC(CCc2ccccc2)O1 (stereo not shown)

IC50 (IL-2 [1]): > 50 µM
SMILES: O=C1C=C(CCc2ccccc2)CO1

IC50 (IL-2 [1]): 150 µM
SMILES: O=C1C[C@@H](O)C[C@H](CCc2ccccc2)O1

IC50 (IL-2 [1]): 4 to 12 µM
SMILES: CCOC(=O)/C=C/C=C/C=C/c1ccccc1

IC50 (IL-2 [1]): > 50 µM
SMILES: O=C1CCC(CCc2ccccc2)O1 (stereo not shown)

IC50 (IL-2 [1]): 3 µM
SMILES: COC(=O)/C=C/C=C/C=C/c1c(-c2ccc(F)cc2)c2ccccc2n1C(C)C [drawing 85]
